One data set deals with NSCLC, renal cell cancer. Kind of data set: Clinical administration of CI-1033 alone. It counts as in vivo, human. The note with it: repeated courses and prolonged exposures, patients. An excerpt:
The treatment may be prolonged, with or without an off drug rest period.

Data set [1] has as its system L3.6pl human pancreatic carcinoma. Kind of data set: Orthotopically implanted L3.6pl human pancreatic carcinoma in nude mice, CI-1033 and gemcitabine. It counts as in vivo. Particulars: for loss of initial body weight during therapy: once daily, 5 days per week, 4 weeks.
The test system of data set [2] is murine colon carcinoma, C26. Kind of data set: Subcutaneous murine colon carcinoma C26, CI-1033 and capecitabine. Particulars: for optimum tumor growth delay as single agent: CI-1033 40, 20, 10 mg/kg PO, capecitabine 750, 500 mg/kg PO days 14-16, 21-23, 28-30; for tumor free survivors: single agents or combinations. It counts as in vivo. Here is the method:
(§1) On Day 0 of the test, each mouse was surgically implanted (subcutaneously) with a fragment of tumor weighing approximately 30 mg. The mice were weighed weekly, and tumor size (width and length in mm) were measured three times each week with standard calipers. Tumor mass for each animal was calculated according to the formula: [formula] where “a” is width of the tumor in mm, and “b” is the length in mm. Evaluation of anticancer activity was evaluated based on the formula T-C, where “T” and “C” are the median time (in days) required for the treated and control (respectively) tumors to reach a pre-determined size of 750 mg (the “evaluation size”). […] Standard agents were diluted as described in the package inserts and administered at various dosage levels in 0.5 mL injections.
(§2) In each experiment, mice bearing established tumors were randomized into one of four treatment groups. One group served as control treatment groups. […] The third group was further divided into four subgroups, each of which received the designated standard agent by the route and schedules indicated below.
(§3) Group 4 was further subdivided into groups receiving combination therapy.
Capecitabine was administered PO at doses of 750 and 500 mg/kg on days 14-16, 21-23, and 28-30.

Data set [3] relates to H125 human non-small cell lung cancer xenograft. It counts as in vivo. The note with it: CI-1033 PO days 19-23 and 26-30; docetaxel IV days 19, 23, 27. The procedure: as §1, §2, §3
Data set [4] deals with SCC-7 Murine Squamous Cell Carcinoma. Kind of data set: SCC-7 murine squamous cell carcinoma, CI-1033 with single-dose radiation. Here is the method:
Two studies were conducted. […] Radiation was delivered as either a single dose or as multiple fractions over a 5-day period.

A further data set deals with Rif-1 sarcoma. Kind of data set: Rif-1 sarcoma, CI-1033 with multiple doses of radiation. It counts as in vivo, murine. An excerpt:
Radiation at 5 Gy for 5 days produced a tumor growth delay of 28.5 days. […] Data representative of this effect is provided on Table I and FIG. 2.

Data set [5] deals with A431 human epidermoid, LX-1 lung, A549 lung and GEO colon carcinomas. The note with it: several human tumor xenografts; cited from earlier work.
Data set [6] has as its system OVCAR-5 Human Ovarian Cancer xenografts. Kind of data set: Advanced OVCAR-5 xenografts, CI-1033 and cisplatin. It counts as in vivo. Here is the method:
One group served as control treatment groups.
Cisplatin at doses of 12, 6, 3, and 1.5 mg/kg was administered IV on days 28, 32, and 34.

A short description of another data set: in vivo. The note with it: female, nude, mouse, in vivo, ip. Here is the method: as §1, §2, §3
(§4) Etoposide was administered IP at doses of 80, 50, and 31 mg/kg on days 12, 16 and 20.

The test system of data set [7] is H125 human non-small cell lung cancer xenograft. Kind of data set: in vivo. The procedure:
as §1, §2, §3, §4

In data set [8] the test system is MDA-MB-453 human breast carcinoma cells. Kind of data set: Paclitaxel-induced apoptosis in vitro, paclitaxel and CI-1033 alone or in combination. The note with it: 3-day exposure to paclitaxel alone. It counts as cell-based. The source says:
However, none of the inhibitors of the erbB family tyrosine kinases described above are irreversible and are pan erbB tyrosine kinase inhibitors. […] [Inoue, Clin. Cancer Res. 6:4874-84, 2000.]

Data set [9] deals with H125 human cell lung carcinoma xenografts. It counts as in vivo. The note with it: CI-1033 orally days 32-35; topotecan IP days 26-30. The procedure:
as §1, §2, §3

Setting [10] is: CI-1033 5 mg/kg PO D 7-18 plus X-ray 10 Gy TO D 7.
The mark [11] stands for this setting: CI-1033 10 mg/kg PO D 7-18, no X-ray.
[12] abbreviates: CI-1033 10 mg/kg PO D 7-18 plus X-ray 10 Gy TO D 7.
Where [13] appears, read: CI-1033 20 mg/kg PO D 7-18, no X-ray.
Setting [14] is: CI-1033 20 mg/kg PO D 7-18 plus X-ray 10 Gy TO D 7.
The mark [15] stands for this setting: CI-1033 40 mg/kg PO D 7-18, no X-ray.
Where [16] appears, read: CI-1033 40 mg/kg PO D 7-18 plus X-ray 10 Gy TO D 7.
[17] abbreviates: capecitabine single agent or capecitabine 750 or 500 mg/kg with CI-1033.

The values that follow come from US20060293323A1, “Therapeutic Combinations of erb B Kinase Inhibitors and Antineoplastic Therapies” (priority 2002, published 2006).

The structures appear in SMILES notation. Counter-ions that a name gives are not always drawn.

With `C=CC(=O)Nc1cc2c(Nc3ccc(F)c(Cl)c3)ncnc2cc1OCCCN1CCOCC1` [CI-1033, N-[4-(3-chloro-4-fluoro-phenylamino)-7-(3-morpholin-4-yl-propoxy)-quinazolin-6-yl]-acrylamide], the cumulative toxicity entry with NSCLC, renal cell cancer is recorded as “no evidence of cumulative toxicity”. Further, the “loss of initial body weight during therapy” value in data set [1] (CI-1033 10 mg/kg orally) is on record as 6%; in [1] (CI-1033 30 mg/kg orally), 9%. In addition, the “body weight between the end of therapy and terminal sacrifice” value in data set [1] (CI-1033 10 and 30 mg/kg) was “gained weight”. The entries for the “optimum tumor growth delay as single agent” value (shortened to “optimum tumor growth delay”) in data set [2] and in data set [3] were 3.6 days and 11.7 days, respectively. In addition, in data set [2], the tumor free survivors stood at 0%. In addition, the “% Weight Change (maximum treatment-related weight loss)” value was −15% in data set [4] (setting [10]); −1% in data set [4] (setting [11]); −13% in data set [4] (setting [12]); −1% in data set [4] (setting [13]); −15% in [4] (setting [14]); −2% in data set [4] (setting [15]). In data set [4] (setting [16]), the “% Weight Change (maximum treatment-related weight loss)” value is recorded as −14%. For the same compound, the figures for the “CR (complete response)” value in data set [4] (setting [10]), in data set [4] (setting [14]) and in data set [4] (setting [16]) were 2/6, 2/6 and 5/6, respectively. Also, the “T − C” value in data set [4] (setting [10]) is given as 11.1 days; in data set [4] (CI-1033 10 mg/kg PO D 7-18, no X-ray, evaluation size 750 mg), 1.3 days; in [4] (setting [12]), 9.7 days; in [4] (CI-1033 20 mg/kg PO D 7-18, no X-ray, evaluation size 750 mg) it was 0.2 days; in data set [4] (setting [14]) it was 20.4 days; in [4] (CI-1033 40 mg/kg PO D 7-18, no X-ray, evaluation size 750 mg), 0.9 days. For the same compound, in data set [4] (setting [16]), the “T − C” value is 26.0 days. In addition, the “Toxic Deaths” value in data set [4] (setting [10]), in data set [4] (setting [11]), in data set [4] (setting [12]), in [4] (setting [13]), in [4] (setting [14]) and in data set [4] (setting [15]) was 0/6 in each case. Further, in data set [4] (setting [16]), the “Toxic Deaths” value is reported as 0/6. Also, the “PR (partial response)” value in data set [4] (setting [12]) and in [4] (setting [14]) was 1/6 in each case. Further, the “enhancement of antitumor effect by combination with radiation” value in [4] (single-dose radiation 1 hour after first of 12 PO doses of CI-1033) is on record as 91%. In addition, the “enhancement compared to radiation alone” value in the data set with Rif-1 sarcoma (5 Gy radiation for 5 days, each 1 hour after daily CI-1033) is recorded as 42%. Moreover, the tumor growth delay with Rif-1 sarcoma (CI-1033 alone, 5-day treatment schedule) is 3.7 days.

`COc1cc2ncnc(Nc3ccc(F)c(Cl)c3)c2cc1OCCCN1CCOCC1` [Iressa]: in [5], the “therapeutic effect of combination with paclitaxel versus either agent alone” value was “greater therapeutic effect”.

Consider `CCCCCOC(=O)Nc1nc(=O)n([C@@H]2O[C@H](C)[C@@H](O)[C@H]2O)cc1F` [capecitabine, 5′-deoxy-5-fluoro-N-[(pentyloxy)carbonyl]-cytidine], for which, in data set [2], the “optimum tumor growth delay” value turned out to be 22.5 days and the tumor free survivors was 8%. Moreover, in data set [2] (setting [17]), the complete responses was 3/6 and the partial responses is recorded as 2/6.

On to `N.N.[Cl][Pt][Cl]` [cisplatin, cis-diaminodichloroplatinum (II)], for which the “anticancer effects when administered alone” value in data set [6] (CI-1033 PO days 28-37, cisplatin IV days 28, 32, 34) is given as “Neither cisplatin nor CI-1033 when administered alone produced meaningful anticancer effects”. For the same compound, in data set [6] (cisplatin alone 12 mg/kg), the “tumor growth delay (T-C)” value is on record as 10 days.

For the compound `CC(=O)O[C@@]12CO[C@@H]1C[C@H](O)[C@@]1(C)C(=O)[C@H](O)C3=C(C)[C@@H](OC(=O)[C@H](O)[C@@H](NC(=O)OC(C)(C)C)c4ccccc4)C[C@@](O)([C@@H](OC(=O)c4ccccc4)[C@H]21)C3(C)C` [docetaxel, reference compound], the “optimum tumor growth delay” value in data set [3] turned out to be 35.7 days.

As to `COc1cc([C@@H]2c3cc4c(cc3[C@@H](O[C@@H]3O[C@@H]5CO[C@@H](C)O[C@H]5[C@H](O)[C@H]3O)[C@H]3COC(=O)[C@H]23)OCO4)cc(OC)c1O` [etoposide, 4′-demethylepipodophyllotoxin 9-[4,6-0-(R)-ethylidene-(beta)-D-glucopyranoside]], the MTD in the data set “in vivo” was found to be 50 mg/kg. In addition, the “delaying the growth of H125 as a single agent” value in [7] (etoposide IP days 12, 16, 20 at 50 mg/kg, CI-1033 200, 124, 77 mg/kg) was “relatively ineffective”. Besides, the tolerability result in data set [7] (etoposide doses 80, 50, 31 mg/kg IP) is given as “well tolerated only at the lowest dose tested”.

Turning to `Nc1ccn([C@@H]2O[C@H](CO)[C@@H](O)C2(F)F)c(=O)n1` [gemcitabine, 2′-deoxy-2′,2′-difluoro-cytidine, reference compound], the “loss of initial body weight at terminal sacrifice” value in data set [1] (gemcitabine alone 125 mg/kg twice weekly) came to 4%. In data set [1] (gemcitabine alone 125 mg/kg twice weekly, tumor bearing nude mice), the “body weight change over the therapy period” value is given as “slight weight gain”.

With `CC(=O)O[C@H]1C(=O)[C@@]2(C)[C@H]([C@H](OC(=O)c3ccccc3)[C@]3(O)C[C@H](OC(=O)[C@H](O)[C@@H](NC(=O)c4ccccc4)c4ccccc4)C(C)=C1C3(C)C)[C@]1(OC(C)=O)CO[C@@H]1C[C@@H]2O` [paclitaxel], the cells undergoing apoptosis in data set [8] is 23%.

With `CC[C@@]1(O)C(=O)OCc2c1cc1n(c2=O)Cc2cc3c(CN(C)C)c(O)ccc3nc2-1` [topotecan, (S)-10-[(dimethylamino)methyl]-4-ethyl-4,9-dihydroxy-1H-pyrano[3′,4′:6,7]indolizino[1,2-b]quinoline-3,14-(4H,12H )-dione monohydrochloride], in data set [9], the “anticancer effectiveness measured by tumor growth delay, single agents” value is reported as “meaningful anticancer effectiveness”.
